Where two headings read alike, the source gives them in different places.
Assays:
[1] = test system: A2780; experiment: MTT cell proliferation assay; format: cell-based, human; details: for IC50: Homo sapiens, A2780, MTT, 72 h treatment, n = 3, read-out: IC50 (µM ± SD) A2780; for Selectivity index A2780: IC50 MRC-5 / IC50 A2780
Method: (§1) MCF-7 (human breast adenocarcinoma), A2780 (human ovarian cancer) and HCT116 (human colorectal carcinoma), and MRC-5 (normal foetal lung fibroblast) cell lines were bought from the ATCC and were cultured in flasks which were incubated at 37 °C in an atmosphere of 5% CO2, 95% air, and 100% relative humidity, to maintain continuous logarithmic growth. MCF-7, A2780, and HCT116 were maintained in RPMI-1640 media (100 U/mL penicillin, 100 µg/mL streptomycin, and 10% foetal bovine serum, Gibco, Carlsbad, CA). MRC-5 cells were maintained in EMEM (100 U/mL penicillin, 100 µg/mL streptomycin, and 10% foetal bovine serum, Gibco, Carlsbad, CA). Doxorubicin (5 μg/mL, for three months) added for RPMI-1640 media containing MCF7 cells was used to develop doxorubicin-resistant MCF7/ADR cells. All cancer and normal cell lines were cultured according to our previous report. Cells were used within 10–20 passages and were checked for mycoplasma every 6 months, by measuring the bioluminescence (Myco Alert sample detection kit; Lonza, Basel, Switzerland) using the multiplate reader (Synergy HT, BioTek, Winooski, VT).
(§2) The MTT assay was used to measure the cytotoxicity and growth inhibitory activities and cytotoxicity of the new compounds according to our previous report[13]^,[17]. Cells from flasks of 70–80% confluency were separately seeded in 96-well flat-bottom microculture plates (Nalgene-Nunc, Thermo Fisher Scientific, Roskilde, Denmark) at a density of 3 × 10^3 cells (MCF-7, A2780, and MRC-5), 1 × 10^4 cells (HCT116), to a volume of 180 μL/well of culture medium. A Neubauer haemocytometer was used for cell counting. Cells were incubated at 37 °C overnight to allow attachment to the wells. The final concentrations of each compound in wells were: 0–50 μM in 200 μL of media (DMSO 0.1%). Lapatinib (Cayman, Ann Arbor, MI) was used as a positive control at the same final concentrations. Medium only (20 μL) was added to each control well, and each concentration was tested in triplicates (n = 3). Following incubation for 72 h, 50 μL MTT was added into each well. Plates were incubated for 3 h, the supernatant was aspirated, and 100 μL of DMSO was added to each well. The optical density (OD) of the purple formazan is proportional to the number of viable cells. […] GraphPad Prism version 5.00 for Windows was used for analysis (La Jolla, CA). Cytotoxicity of the new compounds was calculated after treatment of cancer/normal cell lines for 72 h. The absorbance of the reduced MTT was determined using a microplate reader A570 nm.
(§3) The cytotoxic activity of the new compounds (15a–e, 16a–e, 20, and 21) was evaluated in vitro using MTT assay. The MTT assay depends on the reduction of the yellow tetrazole dye (MTT) to the purple formazan by the active mitochondrial dehydrogenase enzymes indicating the viability of the cells which can be measured as OD. The new compounds were evaluated against three non-resistant cancer cell lines: MCF-7, and A2780 cell lines were selected to compare cytotoxicity of the new compounds with the previously reported results of compounds 9a,b[13]. Cytotoxicity of the new compounds was also evaluated also against HCT116 cells which lacks COX-2 protein[33]^,[34].

[2] = test system: HCT116; experiment: MTT cell proliferation assay; format: cell-based, human; details: for IC50: Homo sapiens, HCT-116, MTT, 72 h treatment, n = 3, read-out: IC50 (µM ± SD) HCT116; for Selectivity index HCT116: IC50 MRC-5 / IC50 HCT116
Method: as §1, §2, §3

[3] = test system: MCF-7; experiment: MTT cell proliferation assay; format: cell-based, human; details: for IC50: Homo sapiens, MCF7, MTT, 72 h treatment, n = 3, read-out: IC50 (µM ± SD) MCF-7; for Selectivity index MCF-7: IC50 MRC-5 / IC50 MCF-7
Method: as §1, §2, §3

[4] = test system: MCF-7, HCT116, and A2780 cancer cell lines; experiment: MTT assay, three cancer cell lines taken together (average, overall range); format: cell-based, human; details: for IC50: Homo sapiens
Method: Cells from flasks of 70–80% confluency were separately seeded in 96-well flat-bottom microculture plates (Nalgene-Nunc, Thermo Fisher Scientific, Roskilde, Denmark) at a density of 3 × 10^3 cells (MCF-7, A2780, and MRC-5), 1 × 10^4 cells (HCT116), to a volume of 180 μL/well of culture medium. […] The final concentrations of each compound in wells were: 0–50 μM in 200 μL of media (DMSO 0.1%). Lapatinib (Cayman, Ann Arbor, MI) was used as a positive control at the same final concentrations. Medium only (20 μL) was added to each control well, and each concentration was tested in triplicates (n = 3). Following incubation for 72 h, 50 μL MTT was added into each well. Plates were incubated for 3 h, the supernatant was aspirated, and 100 μL of DMSO was added to each well. The optical density (OD) of the purple formazan is proportional to the number of viable cells. […] The absorbance of the reduced MTT was determined using a microplate reader A570 nm.

[5] = test system: normal MRC-5 cells; experiment: MTT assay, normal cells (cytotoxic selectivity); format: cell-based; details: Homo sapiens, MRC5, 72 h treatment, n = 3, read-out: IC50 (µM ± SD) MRC-5
Method: as §1, §2
Selectivity towards cancerous cells is one of the important issues which must be considered during the discovery and development of new anticancer agents. To assess the toxicity and selectivity of the new compounds (15a–e, 16a–e, 20, and 21), their growth inhibitory activities against normal human foetal lung fibroblast MRC-5 cells were evaluated using the MTT assay. […] The selectivity of the new compounds towards each of the three cancer cell lines was calculated by dividing their IC50 values against normal MRC-5 cells by their IC50 values against the corresponding cancer cell line (Table 3).

[6] = target: T1, porcine tubulin (Sus scrofa, UniProt P02550+P02554); experiment: Tubulin polymerisation fluorescence-based assay; format: biochemical; details: 0.5 μM, positive control (inhibitor)
T1 construct: purchased Cytoskeleton Inc., Denver, CO BK011P
T1 sequence (P02550 whole entry): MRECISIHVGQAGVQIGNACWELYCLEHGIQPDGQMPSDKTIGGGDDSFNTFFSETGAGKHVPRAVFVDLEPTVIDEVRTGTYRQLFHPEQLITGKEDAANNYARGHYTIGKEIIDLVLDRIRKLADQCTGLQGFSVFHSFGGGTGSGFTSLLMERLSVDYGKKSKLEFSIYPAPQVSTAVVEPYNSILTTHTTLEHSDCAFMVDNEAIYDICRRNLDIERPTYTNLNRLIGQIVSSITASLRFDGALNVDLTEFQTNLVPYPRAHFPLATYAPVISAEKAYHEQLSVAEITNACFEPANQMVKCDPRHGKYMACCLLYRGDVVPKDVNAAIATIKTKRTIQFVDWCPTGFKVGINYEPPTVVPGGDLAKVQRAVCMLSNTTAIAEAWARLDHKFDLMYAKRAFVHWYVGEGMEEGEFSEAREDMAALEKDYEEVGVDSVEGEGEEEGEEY
T1 sequence (P02554 whole entry): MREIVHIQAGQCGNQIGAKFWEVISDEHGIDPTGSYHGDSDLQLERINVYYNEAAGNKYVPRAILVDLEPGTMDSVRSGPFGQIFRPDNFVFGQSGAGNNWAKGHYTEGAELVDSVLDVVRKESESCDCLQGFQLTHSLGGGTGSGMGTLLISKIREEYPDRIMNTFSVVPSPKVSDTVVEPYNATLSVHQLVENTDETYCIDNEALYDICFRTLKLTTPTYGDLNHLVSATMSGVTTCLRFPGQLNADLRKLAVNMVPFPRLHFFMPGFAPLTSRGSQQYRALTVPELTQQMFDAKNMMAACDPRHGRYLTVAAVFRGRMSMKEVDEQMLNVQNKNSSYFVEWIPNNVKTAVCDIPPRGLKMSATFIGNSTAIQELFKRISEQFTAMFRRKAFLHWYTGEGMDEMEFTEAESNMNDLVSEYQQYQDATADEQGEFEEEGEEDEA
Method: The effect of compounds 16a,b,d on tubulin polymerisation was measured in vitro using tubulin polymerisation fluorescence-based assay (cytoskeleton, cat. BK011P, https://www.cytoskeleton.com/bk011p). The assay was performed following the previous report[22] and according to the manufacturer’s instructions. Briefly, 2 mg/mL porcine tubulin was dissolved in buffer 1 (80 mM PIPES, 2 mM MgCl2, 0.5 mM EGTA pH 6.9, 10 µM fluorescent reporter, 1 mM GTP, 15% glycerol) to a final concentration of […]. Then tubulin solution was transferred to a pre-warmed 96-well plate that contained the test compounds 16a,b,d (5 μM), paclitaxel (3 μM), CaCl2 (0.5 μM), and control buffer. The polymerisation of tubulin was monitored as fluorescence at 37 °C for 60 min. Relative fluorescence units (RFU) were determined at 360 nm for excitation and at 460 nm for emission using the Varioskan Flash spectral scanning multimode reader (Thermo Fisher Scientific, Roskilde, Denmark) at a reading speed of 1 cycle/min.
In the current study, the new compounds were designed bearing the trimethoxy phenyl moiety aiming to obtain new cytotoxic agents that can interfere with tubulin polymerisation in cancer cells. […] In this assay, light scattering by microtubules which is directly proportional to the concentration of the microtubule polymer was used as a measure of tubulin polymerisation. The study was performed using a fluorescence-based tubulin polymerisation assay kit (Cytoskeleton Inc., Denver, CO; Cat # BK011P) following the manufacturer’s instructions (https://www.cytoskeleton.com/bk011p) and according to the previous report.
Paclitaxel (3 μM) was used as a tubulin polymerisation enhancer (positive control, enhancer), while calcium chloride (CaCl2, 0.5 μM) was used as a positive control (inhibitor) as per the manufacturer’s instructions (https://www.cytoskeleton.com/pdf-storage/datasheets/bk011p.pdf). The vehicle was also used to evaluate the polymerisation when tubulin is incubated in the absence of the test compound. The effect of the selected compounds (5 μM) on tubulin polymerisation was evaluated and compared with those of the positive control. The results are represented in Figure 8.

[7] = MCF-7, HCT116, A2780, read-out: Average of the three IC50 values against the three cancer cell lines

COc1cc(C=Nc2c(C#N)c3n(c2C(=O)Nc2ccccc2)CCC3)cc(OC)c1OC [15a, 7-Cyano-N-phenyl-6-((3,4,5-trimethoxybenzylidene)amino)-2,3-dihydro-1H-pyrrolizine-5-carboxamide]
IC50 [1]: 25.8 ± 4.99 µM | Selectivity index A2780 [1]: 0.07 | IC50 [2]: 0.353 ± 0.088 µM | Selectivity index HCT116 [2]: 4.92 | IC50 [3]: 36.9 ± 4.4 µM | Selectivity index MCF-7 [3]: 0.05 | IC50 [4, 7]: 21000 nM | IC50 [5]: 1.74 ± 0.149 µM | melting point: 242 to 244 °C

COc1cc(C=Nc2c(C#N)c3n(c2C(=O)Nc2ccc(C)cc2)CCC3)cc(OC)c1OC [15b, 7-Cyano-N-(p-tolyl)-6-((3,4,5-trimethoxybenzylidene)amino) -2,3-dihydro-1H-pyrrolizine-5-carboxamide]
IC50 [1]: 33.4 ± 3.73 µM | Selectivity index A2780 [1]: 0.10 | IC50 [2]: 19.8 ± 7.76 µM | Selectivity index HCT116 [2]: 0.17 | IC50 [3]: 35.9 ± 4.44 µM | Selectivity index MCF-7 [3]: 0.09 | IC50 [4, 7]: 29700 nM | IC50 [5]: 3.33 ± 1 µM | melting point: 251 to 253 °C

COc1ccc(NC(=O)c2c(N=Cc3cc(OC)c(OC)c(OC)c3)c(C#N)c3n2CCC3)cc1 [15c, 7-Cyano-N-(4-methoxyphenyl)-6-((3,4,5-trimethoxybenzylidene)amino)-2,3-dihydro-1H-pyrrolizine-5-carboxamide]
IC50 [1]: 0.041 ± 0.008 µM | Selectivity index A2780 [1]: 48.27 | IC50 [2]: 0.096 ± 0.015 µM | Selectivity index HCT116 [2]: 20.47 | IC50 [3]: 0.616 ± 0.01 µM | Selectivity index MCF-7 [3]: 3.21 | IC50 [4, 7]: 251 nM | IC50 [5]: 1.98 ± 0.561 µM | melting point: 263 to 265 °C

COc1cc(C=Nc2c(C#N)c3n(c2C(=O)Nc2ccc(Cl)cc2)CCC3)cc(OC)c1OC [15d, N-(4-Chlorophenyl)-7-cyano-6-((3,4,5-trimethoxybenzylidene)amino)-2,3-dihydro-1H-pyrrolizine-5-carboxamide]
IC50 [1]: 0.07 ± 0.002 µM | Selectivity index A2780 [1]: 29.61 | IC50 [2]: 0.534 ± 0.204 µM | Selectivity index HCT116 [2]: 3.88 | IC50 [3]: 21.8 ± 3.18 µM | Selectivity index MCF-7 [3]: 0.10 | IC50 [4, 7]: 7450 nM | IC50 [5]: 2.07 ± 0.054 µM | melting point: 271 to 273 °C

COc1cc(C=Nc2c(C#N)c3n(c2C(=O)Nc2ccc(Br)cc2)CCC3)cc(OC)c1OC [15e, N-(4-Bromophenyl)-7-cyano-6-((3,4,5-trimethoxybenzylidene)amino)-2,3-dihydro-1H-pyrrolizine-5-carboxamide]
IC50 [1]: 0.311 ± 0.041 µM | Selectivity index A2780 [1]: 54.92 | IC50 [2]: 0.144 ± 0.049 µM | Selectivity index HCT116 [2]: 118.61 | IC50 [3]: 0.187 ± 0.098 µM | Selectivity index MCF-7 [3]: 91.24 | IC50 [4, 7]: 214 nM | IC50 [5]: 17.1 ± 0.552 µM | melting point: 277 to 280 °C

COc1ccc(NC(=O)c2c(NC(=O)c3cc(OC)c(OC)c(OC)c3)c(C#N)c3n2CCC3)cc1 [16c, 7-Cyano-N-(4-methoxyphenyl)-6-(3,4,5-trimethoxybenzamido)-2,3-dihydro-1H-pyrrolizine-5-carboxamide]
IC50 [1]: 0.144 ± 0.012 µM | Selectivity index A2780 [1]: 4.62 | IC50 [2]: 0.032 ± 0.014 µM | Selectivity index HCT116 [2]: 20.78 | IC50 [3]: 1.47 ± 0.452 µM | Selectivity index MCF-7 [3]: 0.45 | IC50 [4, 7]: 549 nM | IC50 [5]: 0.665 ± 0.191 µM | melting point: 259 to 261 °C

COc1cc(C(=O)Nc2c(C#N)c3n(c2C(=O)Nc2ccc(Br)cc2)CCC3)cc(OC)c1OC [16e, N-(4-Bromophenyl)-7-cyano-6-(3,4,5-trimethoxybenzamido) -2,3-dihydro-1H-pyrrolizine-5-carboxamide]
IC50 [1]: 0.914 ± 0.092 µM | Selectivity index A2780 [1]: 5.75 | IC50 [2]: 0.173 ± 0.039 µM | Selectivity index HCT116 [2]: 30.40 | IC50 [3]: 0.361 ± 0.039 µM | Selectivity index MCF-7 [3]: 14.57 | IC50 [4, 7]: 483 nM | IC50 [5]: 5.26 ± 1.4 µM | melting point: 286 to 288 °C

[Ca+2].[Cl-].[Cl-] [CaCl2, calcium chloride, reference compound]
effect on tubulin polymerisation [6]: inhibited tubulin polymerisation and reduced the final polymer mass

CS(=O)(=O)CCNCc1ccc(-c2ccc3ncnc(Nc4ccc(OCc5cccc(F)c5)c(Cl)c4)c3c2)o1 [Lapatinib, reference compound]
IC50 [1]: 9.72 ± 0.845 µM | Selectivity index A2780 [1]: 1.40 | IC50 [2]: 10 ± 1.13 µM | Selectivity index HCT116 [2]: 1.36 | IC50 [3]: 6.69 ± 1.09 µM | Selectivity index MCF-7 [3]: 2.04 | IC50 [4, 7]: 8830 nM | IC50 ([4]; MTT, 72 h, range over MCF-7, HCT116, A2780, read-out: IC50 against the three cancer cell lines): 6690 to 10000 nM | IC50 [5]: 13.7 ± 2.9 µM

COc1cc(C=Nc2c(C#N)c3n(c2C(=O)Nc2ccccc2)CCCC3)cc(OC)c1OC [compound 20, 1-Cyano-N-phenyl-2-((3,4,5-trimethoxybenzylidene)amino)-5,6,7,8-tetrahydroindolizine-3-carboxamide]
IC50 [1]: 0.938 ± 0.116 µM | Selectivity index A2780 [1]: 1.62 | IC50 [2]: 0.247 ± 0.069 µM | Selectivity index HCT116 [2]: 6.14 | IC50 [3]: 5.72 ± 0.185 µM | Selectivity index MCF-7 [3]: 0.27 | IC50 [4, 7]: 2300 nM | fold increase in cytotoxicity against the three cancer cell lines ([4]; relative to compound 15a (ring expansion)): 1.4–27.5 fold | IC50 [5]: 1.52 ± 0.103 µM | melting point: 247 to 249 °C

COc1cc(C(=O)Nc2c(C#N)c3n(c2C(=O)Nc2ccccc2)CCCC3)cc(OC)c1OC [compound 21, 1-Cyano-N-phenyl-2-(3,4,5-trimethoxybenzamido)-5,6,7,8-tetrahydroindolizine-3-carboxamide]
IC50 [1]: 0.598 ± 0.039 µM | IC50 [2]: 0.176 ± 0.017 µM | IC50 [3]: 0.6 ± 0.054 µM | IC50 [4, 7]: 458 nM | IC50 [5]: 0.584 ± 0.094 µM

Reference: paper PMC8221158, “Novel pyrrolizines bearing 3,4,5-trimethoxyphenyl moiety: design, synthesis, molecular docking, and biological evaluation as potential multi-target cytotoxic agents” (Journal of Enzyme Inhibition and Medicinal Chemistry, 2021)
